{"source": "patent US20220226392A1", "about": "“COMPOSITIONS AND PROCESS FOR INTEGRATING CELLS INTO EPITHELIUM” (Medizinische Hochschule Hannover, priority 2019, published 2022)", "key": {"[1]": {"system": "human umbilical vein endothelial cells", "details": "10 nM 17β-estradiol; cited from earlier work"}, "[2]": {"system": "human primary venous endothelial cells", "assay": "Loosening and regeneration of a confluent endothelial cell monolayer after contact with 17β-estradiol (phase contrast, anti-VE-cadherin and DAPI staining)", "assay_type": "cell-based", "procedure": "As an example for an endothelium, human primary venous endothelial cells were cultivated in EGM-medium under cell culture conditions until reaching confluence. Then, the medium was removed from this exemplary epithelium and replaced by fresh EGM-medium containing 17β-estradiol in a concentration of 1 μM, 10 μM, 30 μM, 100 μM, or 300 μM. The concentrations of 17β-estradiol are also indicated in the rows of FIG. 1. […] Subsequent to the presence of the 17β-estradiol in medium, this first composition was removed and replaced by EGM-medium without added 17β-estradiol, with subsequent incubation for 4 h under cell culture conditions. The result is depicted in FIG. 1 in column C in phase contrast, and in column D after immunological staining for VE-cadherin as an essential component of adherens junctions between cells, and DAPI staining for nuclei."}, "[3]": {"system": "uterine human microvascular endothelial cells", "details": "10 nM 17β-estradiol; cited from earlier work"}, "[4]": {"system": "human primary venous endothelial cells", "assay": "Integration of suspended eGFP-expressing iPSC-derived endothelial cells into an endothelial cell layer pre-treated with 17β-estradiol", "assay_type": "cell-based", "procedure": "A confluent layer of human primary venous endothelial cells cultivated in EGM-medium was used as a representative for endothelium. This endothelial cell layer was contacted with a first composition containing 17β-estradiol in a concentration yielding 100 μM 17β-estradiol in fresh cell culture medium. After incubating this endothelial cell layer under cell culture conditions for 30 min in the presence of 100 μM 17β-estradiol, the medium was removed and replaced by a suspension of iPSC-derived endothelial cells that were genetically manipulated to constitutively express enhanced green fluorescent green protein (eGFP) in EGM-medium without added 17β-estradiol."}}}
{"smiles": "C[C@]12CC[C@@H]3c4ccc(O)cc4CC[C@H]3[C@@H]1CC[C@@H]2O", "note": "[17β-estradiol]", "values": [{"measurement": "permeability for FITC-labelled dextran of monolayer", "setting": "[1]", "value": "increases the permeability"}, {"measurement": "concentration at which the endothelial layer was loosened, respectively shows disintegration", "setting": "[2]; 30 min in EGM-medium, tested 1, 10, 30, 100, 300 μM, FIG. 1 columns A, B", "value": "at least 10 μM"}, {"measurement": "state of the endothelial layer after removal of 17β-estradiol", "setting": "[2]; 4 h incubation in EGM-medium without 17β-estradiol after 30 min exposure, VE-cadherin and DAPI staining, FIG. 1 columns C, D", "value": "a closed layer of the endothelial cells is re-established"}, {"measurement": "permeability for FITC-labelled dextran of monolayer", "setting": "[3]", "value": "increases the permeability"}, {"measurement": "integration of eGFP-labelled endothelial cells of the suspension into the endothelial layer", "setting": "[4]; 100 μM 17β-estradiol for 30 min, then 4 h incubation with cell suspension without 17β-estradiol, FIG. 2 column B", "value": "efficiently integrate between the original endothelial cells"}, {"measurement": "effect on endothelial cell layer and VE-cadherin expression", "setting": "[4]; 100 μM 17β-estradiol, 30 min, FIG. 2 column A", "value": "loosening of the cell layer and loss of VE-cadherin expression"}]}
